From patent publication US10174024B2, “5H-pyrido[3,2-B]indole compounds as anticancer agents” (BRISTOL-MYERS SQUIBB COMPANY, priority 2015, dated 2019)

Molecular target: BRD4 (Homo sapiens, UniProt O60885)
Test: Time Resolved Fluorescence Resonance Energy Transfer (TR-FRET) binding assay, FRET BRD4
Conditions: one of the FRET assays described (BRD4 bromodomain construct not specified); read-out: FRET BRD4 IC50

Compound	IC50 [nM]
[2H]C([2H])([2H])c1nnn(C)c1-c1cnc2c3c(N4CCCS4(=O)=O)ccc(S(C)(=O)=O)c3n([C@H](c3ccccc3)C3CCOCC3)c2c1 [Example 26, 2-{6-Methanesulfonyl-3-[4-(^2H3)methyl-1-methyl-1H-1,2,3-triazol-5-yl]-5-[(S)-oxan-4-yl(phenyl)methyl]-5H-pyrido[3,2-b]indol-9-yl}-1λ^6,2-thiazolidine-1,1-dione]	< 1500
[2H]C([2H])([2H])c1nnn(C)c1-c1ccc2c3ncc(-c4c(C([2H])([2H])[2H])nnn4C)cc3n(C(c3ncccc3F)C3CCOCC3)c2c1 (stereo not drawn) [Example 27, 2-({3,7-Bis[4-(^2H3)methyl-1-methyl-1H-1,2,3-triazol-5-yl]-5H-pyrido[3,2-b]indol-5-yl}(oxan-4-yl)methyl)-3-fluoropyridine]	< 5
[2H]C([2H])([2H])c1nnn(C)c1-c1ccc2c3ncc(-c4c(C([2H])([2H])[2H])nnn4C)cc3n(C(c3ncccc3F)C3CCOCC3)c2c1 (stereo not drawn) [Example 28, 2-({3,7-Bis[4-(^2H3)methyl-1-methyl-1H-1,2,3-triazol-5-yl]-5H-pyrido[3,2-b]indol-5-yl}(oxan-4-yl)methyl)-3-fluoropyridine]	< 5
[2H]C([2H])([2H])Oc1nnn(C)c1-c1ccc2c3ncc(-c4c(OC([2H])([2H])[2H])nnn4C)cc3n([C@H](c3ccccc3)C3CCOCC3)c2c1 [Example 29, 4-(^2H3)Methoxy-5-{7-[4-(^2H)methoxy-1-methyl-1H-1,2,3-triazol-5-yl]-5-[(S)-oxan-4-yl-(phenyl)methyl]-5H-pyrido[3,2-b]indol-3-yl}-1-methyl-1H-1,2,3-triazole]	< 5
[2H]C([2H])([2H])n1nnc(OC)c1-c1ccc2c3ncc(-c4c(OC)nnn4C([2H])([2H])[2H])cc3n([C@H](c3ccccc3)C3CCOCC3)c2c1 [Example 30, 4-Methoxy-5-{7-[4-methoxy-1-(^2H3)methyl-1H-1,2,3-triazol-5-yl]-5-[(S)-oxan-4-yl(phenyl)-methyl]-5H-pyrido[3,2-b]indol-3-yl}-1-(^2H3)methyl-1H-1,2,3-triazole]	< 5
[2H]C([2H])([2H])c1nnn(C)c1-c1ccc2c3ncc(-c4c(C([2H])([2H])[2H])nnn4C)cc3n([C@H](c3ccccc3)C3CCOCC3)c2c1 [Example 31, 4-(^2H3)Methyl-1-methyl-5-{7-[4-(^2H3)methyl-1-methyl-1H-1,2,3-triazol-5-yl]-5-[(S)-oxan-4-yl(phenyl)methyl]-5H-pyrido[3,2-b]indol-3-yl}-1H-1,2,3-triazole]	< 1
COc1nnn(C)c1-c1ccc2c3ncc(-c4c(OC)nnn4C)cc3n([C@H](c3ccccc3)C3CCOCC3)c2c1 [Example 32, 4-Methoxy-5-[7-(4-methoxy-1-methyl-1H-1,2,3-triazol-5-yl)-5-[(S)-oxan-4-yl(phenyl)methyl]-5H-pyrido[3,2-b]indol-3-yl]-1-methyl-1H-1,2,3-triazole]	< 1
[2H]C([2H])([2H])c1nnn(C)c1-c1cnc2c3c(N4CCCS4(=O)=O)ccc(S(C)(=O)=O)c3n([C@H](c3ccc(F)cc3)C3CCOCC3)c2c1 [Example 33, 2-{5-[(S)-(4-Fluorophenyl)(oxan-4-yl)methyl]-6-methanesulfonyl-3-[4-(^2H3)methyl-1-methyl-1H-1,2,3-triazol-5-yl]-5H-pyrido[3,2-b]indol-9-yl}-1λ^6,2-thiazolidine-1,1-dione]	< 1
[2H]C([2H])([2H])c1nnn(C)c1-c1cnc2c3c(N4CCCS4(=O)=O)ccc(S(C)(=O)=O)c3n([C@H](c3ccccc3F)C3CCOCC3)c2c1 [Example 34, 2-{5-[(S)-(2-Fluorophenyl)(oxan-4-yl)methyl]-6-methanesulfonyl-3-[4-(^2H3)methyl-1-methyl-1H-1,2,3-triazol-5-yl]-5H-pyrido[3,2-b]indol-9-yl}-1λ^6,2-thiazolidine-1,1-dione]	< 1
[2H]C([2H])([2H])c1nnn(C)c1-c1cnc2c3c(N4CCCS4(=O)=O)ccc(S(C)(=O)=O)c3n(C(c3ncccc3F)C3CCOCC3)c2c1 (stereo not drawn) [Example 35, 2-{5-[(3-Fluoropyridin-2-yl)(oxan-4-yl)methyl]-6-methanesulfonyl-3-[4-(^2H3)methyl-1-methyl-1H-1,2,3-triazol-5-yl]-5H-pyrido[3,2-b]indol-9-yl}-1λ^6,2-thiazolidine-1,1-dione]	< 1
[2H]C([2H])([2H])c1nnn(C)c1-c1cnc2c3c(N4CCCS4(=O)=O)ccc(S(C)(=O)=O)c3n(C(c3ncccc3F)C3CCOCC3)c2c1 (stereo not drawn) [Example 36, 2-{5-[(3-Fluoropyridin-2-yl)(oxan-4-yl)methyl]-6-methanesulfonyl-3-[4-(^2H3)methyl-1-methyl-1H-1,2,3-triazol-5-yl]-5H-pyrido[3,2-b]indol-9-yl}-1λ^6,2-thiazolidine-1,1-dione]	< 1500
[2H]C([2H])([2H])c1nnn(C)c1-c1cnc2c3c(N4CCCS4(=O)=O)ccc(S(C)(=O)=O)c3n([C@]([2H])(c3ccccc3F)C3CCOCC3)c2c1 [Example 37, 2-{5-[(S)-(2-Fluorophenyl)(oxan-4-yl)(^2H)methyl]-6-methanesulfonyl-3-[4-(^2H3)methyl-1-methyl-1H-1,2,3-triazol-5-yl]-5H-pyrido[3,2-b]indol-9-yl}-1λ^6,2-thiazolidine-1,1-dione]	< 5
[2H]C([2H])([2H])c1nnn(C)c1-c1cnc2c3c(N4CCCS4(=O)=O)ccc(S(C)(=O)=O)c3n([C@]([2H])(c3ccccc3)C3CCOCC3)c2c1 [Example 38, 2-{6-Methanesulfonyl-3-[4-(^2H3)methyl-1-methyl-1H-1,2,3-triazol-5-yl]-5-[(S)-oxan-4-yl(phenyl)(^2H)methyl]-5H-pyrido[3,2-b]indol-9-yl}-1λ^6,2-thiazolidine-1,1-dione]	< 5
[2H]C([2H])([2H])c1nnn(C)c1-c1cnc2c3cc(N4CCS(=O)(=O)CC4)ccc3n([C@H](c3ccc(F)cc3)C3CCOCC3)c2c1 [Example 39, 4-{5-[(S)-(4-Fluorophenyl)(oxan-4-yl)methyl]-3-[4-(^2H3)methyl-1-methyl-1H-1,2,3-triazol-5-yl]-5H-pyrido[3,2-b]indol-8-yl}-1λ^6-thiomorpholine-1,1-dione]	< 5
[2H]C([2H])([2H])c1nnn(C)c1-c1cnc2c3cc(N4CCN(S(C)(=O)=O)CC4)ccc3n([C@H](c3ccc(F)cc3)C3CCOCC3)c2c1 [Example 40, 1-{5-[(S)-(4-Fluorophenyl)(oxan-4-yl)methyl]-3-[4-(^2H3)methyl-1-methyl-1H-1,2,3-triazol-5-yl]-5H-pyrido[3,2-b]indol-8-yl}-4-methanesulfonylpiperazine]	< 1
[2H]C([2H])([2H])c1nnn(C)c1-c1cnc2c3cc(N4CCS(=O)(=O)CC4)ccc3n([C@H](c3ccccc3F)C3CCOCC3)c2c1 [Example 41, 4-{5-[(S)-(2-Fluorophenyl)(oxan-4-yl)methyl]-3-[4-(^2H3)methyl-1-methyl-1H-1,2,3-triazol-5-yl]-5H-pyrido[3,2-b]indol-8-yl}-1λ^6-thiomorpholine-1,1-dione]	< 1500
[2H]C([2H])([2H])c1nnn(C)c1-c1cnc2c3cc(N4CCN(S(C)(=O)=O)CC4)ccc3n([C@H](c3ccccc3F)C3CCOCC3)c2c1 [Example 42, 1-{5-[(S)-(2-Fluorophenyl)(oxan-4-yl)methyl]-3-[4-(^2Ha)methyl-1-methyl-1H-1,2,3-triazol-5-yl]-5H-pyrido[3,2-b]indol-8-yl}-4-methanesulfonylpiperazine]	< 5
[2H]C([2H])([2H])c1nnn(C)c1-c1cnc2c3cc(N4CCc5ccccc5C4)ccc3n([C@H](c3ccc(F)cc3)C3CCOCC3)c2c1 [Example 43, 2-{5-[(S)-(4-Fluorophenyl)(oxan-4-yl)methyl]-3-[4-(^2H3)methyl-1-methyl-1H-1,2,3-triazol-5-yl]-5H-pyrido[3,2-b]indol-8-yl}-1,2,3,4-tetrahydroisoquinoline]	< 5
Cc1nnn(C)c1-c1cnc2c3ccc(N4CCS(=O)(=O)CC4)cc3n([C@H](c3ccccc3)C3CCOCC3)c2c1 [Example 44, 4-[3-(Dimethyl-1H-1,2,3-triazol-5-yl)-5-[(S)-oxan-4-yl(phenyl)methyl]-5H-pyrido[3,2-b]-indol-7-yl]-1λ^6-thiomorpholine-1,1-dione]	< 1
[2H]C([2H])([2H])c1nnn(C)c1-c1cnc2c3ccc(N4CCS(=O)(=O)CC4)cc3n([C@H](c3ccccc3)C3CCOCC3)c2c1 [Example 45, 4-{3-[4-(^2H3)Methyl-1-methyl-1H-1,2,3-triazol-5-yl]-5-[(S)-oxan-4-yl(phenyl)methyl]-5H-pyrido[3,2-b]indol-7-yl}-1λ^6-thiomorpholine-1,1-dione]	< 5
[2H]C([2H])([2H])c1nnn(C)c1-c1cnc2c3ccc(N4CCN(S(C)(=O)=O)CC4)cc3n([C@H](c3ccccc3)C3CCOCC3)c2c1 [Example 46, 1-Methanesulfonyl-4-{3-[4-(^2H3)methyl-1-methyl-1H-1,2,3-triazol-5-yl]-5-[(S)-oxan-4-yl(phenyl)methyl]-5H-pyrido[3,2-b]indol-7-yl}piperazine]	< 1
Cc1nnn(C)c1-c1cnc2c3ccc(N4CCN(C5CCN(C)CC5)CC4)cc3n([C@H](c3ccccc3)C3CCOCC3)c2c1 [Example 48, 1-[3-(Dimethyl-1H-1,2,3-triazol-5-yl)-5-[(S)-oxan-4-yl(phenyl)methyl]-5H-pyrido[3,2-b]indol-7-yl]-4-(1-methylpiperidin-4-yl)piperazine]	< 1
Cc1nnn(C)c1-c1cnc2c3ccc(N4CCN(C(=O)N(C)C)CC4)cc3n([C@H](c3ccccc3)C3CCOCC3)c2c1 [Example 49, 4-[3-(Dimethyl-1H-1,2,3-triazol-5-yl)-5-[(S)-oxan-4-yl(phenyl)methyl]-5H-pyrido[3,2-b]indol-7-yl]-N,N-dimethylpiperazine-1-carboxamide]	< 5
Cc1nnn(C)c1-c1cnc2c3ccc(N4CCN(S(=O)(=O)N(C)C)CC4)cc3n([C@H](c3ccccc3)C3CCOCC3)c2c1 [Example 50, 4-[3-(Dimethyl-1H-1,2,3-triazol-5-yl)-5-[(S)-oxan-4-yl(phenyl)methyl]-5H-pyrido[3,2-b]indol-7-yl]-N,N-dimethylpiperazine-1-sulfonamide]	< 5
